From the NIST ThermoML archive (doi:10.1016/j.jct.2013.10.031)
Numbers after ± are expanded uncertainties.

Experiment: wn = mass fraction of the nth substance listed
Settings: Gas, Burnett expansion method

For FCC(F)(F)F [1,1,1,2-tetrafluoroethane] + CCC, the mass density (282.99 K, 353.3 kPa, w2 = 0.55) was 9.521 ± 0.59 kg/m3, the mass density (282.99 K, 510.2 kPa, w2 = 0.65) was 13.287 ± 0.61 kg/m3 and the mass density (282.99 K, 592.4 kPa, w2 = 0.55) was 16.8344 ± 0.67 kg/m3. The mass density (283 K, 155.9 kPa, w2 = 0.55) was 4.0493 ± 0.54 kg/m3, the mass density (283 K, 176.1 kPa, w2 = 0.6) was 4.4337 ± 0.53 kg/m3 and the mass density (283 K, 205.5 kPa, w2 = 0.55) was 5.3845 ± 0.55 kg/m3. For the same compound, the mass density (283 K, 230.2 kPa, w2 = 0.65) was 5.6511 ± 0.52 kg/m3, the mass density (283 K, 270 kPa, w2 = 0.55) was 7.1599 ± 0.56 kg/m3 and the mass density (283 K, 393.8 kPa, w2 = 0.65) was 9.9922 ± 0.56 kg/m3. It also gave a mass density (283 K, 459.5 kPa, w2 = 0.55) of 12.6599 ± 0.63 kg/m3, a mass density (283 K, 653.6 kPa, w2 = 0.65) of 17.6674 ± 0.63 kg/m3 and a mass density (283.01 K, 175 kPa, w2 = 0.65) of 4.2497 ± 0.51 kg/m3. The mass density (283.86 K, 174.7 kPa, w2 = 0.4) was 5.14203 ± 0.62 kg/m3, the mass density (283.87 K, 229.9 kPa, w2 = 0.4) was 6.84912 ± 0.63 kg/m3 and the mass density (283.87 K, 301.6 kPa, w2 = 0.4) was 9.12315 ± 0.65 kg/m3. For the same compound, the mass density (283.88 K, 393.6 kPa, w2 = 0.4) was 12.1512 ± 0.68 kg/m3, the mass density (283.9 K, 510.3 kPa, w2 = 0.4) was 16.1858 ± 0.73 kg/m3 and the mass density (283.94 K, 655.1 kPa, w2 = 0.4) was 21.5571 ± 0.77 kg/m3. It also gave a mass density (284.1 K, 397.4 kPa, w2 = 0.45) of 11.7333 ± 0.65 kg/m3, a mass density (284.1 K, 515.6 kPa, w2 = 0.45) of 15.6293 ± 0.7 kg/m3 and a mass density (284.1 K, 662.3 kPa, w2 = 0.45) of 20.819 ± 0.72 kg/m3. It also gave a mass density (284.11 K, 176.2 kPa, w2 = 0.45) of 4.96426 ± 0.59 kg/m3, a mass density (284.11 K, 231.9 kPa, w2 = 0.45) of 6.61256 ± 0.6 kg/m3 and a mass density (284.11 K, 304.4 kPa, w2 = 0.45) of 8.80835 ± 0.62 kg/m3. For the same compound, the mass density (284.11 K, 711.7 kPa, w2 = 0.5) was 21.5401 ± 0.72 kg/m3, the mass density (284.12 K, 555.4 kPa, w2 = 0.5) was 16.1702 ± 0.68 kg/m3 and the mass density (284.13 K, 189.6 kPa, w2 = 0.5) was 5.13602 ± 0.56 kg/m3. It also gave a mass density (284.13 K, 249.8 kPa, w2 = 0.5) of 6.84131 ± 0.58 kg/m3, a mass density (284.13 K, 327.9 kPa, w2 = 0.5) of 9.11297 ± 0.6 kg/m3 and a mass density (284.13 K, 428.3 kPa, w2 = 0.5) of 12.139 ± 0.63 kg/m3. It also gave a mass density (287 K, 196.2 kPa, w2 = 0.6) of 4.8811 ± 0.52 kg/m3, a mass density (287 K, 768.5 kPa, w2 = 0.65) of 20.9537 ± 0.65 kg/m3 and a mass density (287.01 K, 258.3 kPa, w2 = 0.6) of 6.4904 ± 0.53 kg/m3. The mass density (287.01 K, 274.8 kPa, w2 = 0.65) was 6.7019 ± 0.52 kg/m3, the mass density (287.01 K, 311.4 kPa, w2 = 0.55) was 8.1881 ± 0.56 kg/m3 and the mass density (287.01 K, 338.5 kPa, w2 = 0.6) was 8.6303 ± 0.55 kg/m3. The mass density (287.01 K, 406.7 kPa, w2 = 0.55) was 10.8878 ± 0.59 kg/m3, the mass density (287.01 K, 527.4 kPa, w2 = 0.55) was 14.4779 ± 0.63 kg/m3 and the mass density (287.01 K, 571.1 kPa, w2 = 0.6) was 15.26 ± 0.62 kg/m3. For the same compound, the mass density (287.01 K, 603.8 kPa, w2 = 0.65) was 15.7575 ± 0.62 kg/m3, the mass density (287.01 K, 677.5 kPa, w2 = 0.55) was 19.2516 ± 0.66 kg/m3 and the mass density (287.01 K, 730.6 kPa, w2 = 0.6) was 20.2911 ± 0.66 kg/m3. It also gave a mass density (287.02 K, 180 kPa, w2 = 0.55) of 4.6307 ± 0.54 kg/m3, a mass density (287.02 K, 209 kPa, w2 = 0.65) of 5.0401 ± 0.51 kg/m3 and a mass density (287.02 K, 237.2 kPa, w2 = 0.55) of 6.1576 ± 0.54 kg/m3. For the same compound, the mass density (287.02 K, 359.7 kPa, w2 = 0.65) was 8.9115 ± 0.54 kg/m3, the mass density (287.02 K, 441.6 kPa, w2 = 0.6) was 11.4756 ± 0.58 kg/m3 and the mass density (287.02 K, 467.8 kPa, w2 = 0.65) was 11.85 ± 0.57 kg/m3. It also gave a mass density (287.89 K, 145.9 kPa, w2 = 0.4) of 4.20423 ± 0.6 kg/m3, a mass density (287.89 K, 192.3 kPa, w2 = 0.4) of 5.60013 ± 0.61 kg/m3 and a mass density (287.89 K, 253 kPa, w2 = 0.4) of 7.45965 ± 0.63 kg/m3. For the same compound, the mass density (287.89 K, 331.1 kPa, w2 = 0.4) was 9.93648 ± 0.65 kg/m3, the mass density (287.9 K, 431.5 kPa, w2 = 0.4) was 13.2354 ± 0.69 kg/m3 and the mass density (287.9 K, 558 kPa, w2 = 0.4) was 17.6298 ± 0.74 kg/m3. The mass density (287.93 K, 714.8 kPa, w2 = 0.4) was 23.4815 ± 0.77 kg/m3, the mass density (288.06 K, 650.7 kPa, w2 = 0.45) was 19.9802 ± 0.74 kg/m3 and the mass density (288.07 K, 171.7 kPa, w2 = 0.45) was 4.76422 ± 0.58 kg/m3. The mass density (288.07 K, 226.1 kPa, w2 = 0.45) was 6.34615 ± 0.59 kg/m3, the mass density (288.07 K, 297 kPa, w2 = 0.45) was 8.45356 ± 0.61 kg/m3 and the mass density (288.07 K, 388.5 kPa, w2 = 0.45) was 11.2604 ± 0.64 kg/m3. It also gave a mass density (288.07 K, 505 kPa, w2 = 0.45) of 14.9994 ± 0.68 kg/m3, a mass density (288.07 K, 827.4 kPa, w2 = 0.45) of 26.6134 ± 0.78 kg/m3 and a mass density (288.18 K, 242.5 kPa, w2 = 0.5) of 6.52495 ± 0.57 kg/m3. For the same compound, the mass density (288.18 K, 416.8 kPa, w2 = 0.5) was 11.5774 ± 0.61 kg/m3, the mass density (288.19 K, 184.1 kPa, w2 = 0.5) was 4.89841 ± 0.55 kg/m3 and the mass density (288.19 K, 318.7 kPa, w2 = 0.5) was 8.69128 ± 0.58 kg/m3. For the same compound, the mass density (288.19 K, 541.6 kPa, w2 = 0.5) was 15.4214 ± 0.65 kg/m3, the mass density (288.19 K, 696.9 kPa, w2 = 0.5) was 20.5413 ± 0.69 kg/m3 and the mass density (291 K, 851.2 kPa, w2 = 0.55) was 24.7999 ± 0.71 kg/m3. It also gave a mass density (291.01 K, 519.6 kPa, w2 = 0.55) of 14.0252 ± 0.61 kg/m3, a mass density (291.01 K, 669.4 kPa, w2 = 0.55) of 18.65 ± 0.67 kg/m3 and a mass density (291.02 K, 399.8 kPa, w2 = 0.55) of 10.5472 ± 0.58 kg/m3. For the same compound, the mass density (291.03 K, 305.7 kPa, w2 = 0.55) was 7.9316 ± 0.55 kg/m3, the mass density (291.04 K, 168.3 kPa, w2 = 0.6) was 4.1049 ± 0.5 kg/m3 and the mass density (291.04 K, 222.1 kPa, w2 = 0.6) was 5.4582 ± 0.51 kg/m3. It also gave a mass density (291.04 K, 232.6 kPa, w2 = 0.55) of 5.9647 ± 0.54 kg/m3 and a mass density (291.04 K, 292.1 kPa, w2 = 0.6) of 7.2581 ± 0.53 kg/m3.
